Source: patent publication US20240391965A1, “STAPLED ANTIMICROBIAL PEPTIDES (STAMPS) AND USES THEREOF” (Lytica Therapeutics, Inc., priority 2021, published 2024)
≈ marks a conversion by molar mass, not a printed value. Starred links: 1 amine or outer side, 2 acyl side, 3 side chain; linkers in the order of their positions; H or OH if unused. Positions of bridges follow the written chain, without caps; N, C: chain ends. Residues, ends and D or L forms follow the SMILES beside them. mXylylene = c1cc(C[*:1])cc(C[*:2])c1; pXylylene = c1cc(C[*:2])ccc1C[*:1]; X1 = C(=CC[*:2])C[*:1]

Key:
[1] = 90 minute cytotoxicity assay (LDH release), renal toxicity; format: cell-based
Source text: (§1) In some embodiments, a peptide provided herein has renal toxicity that is at least 10% (e.g., at least 15%, at least 20%, at least 25%, at least 30%, at least 35%, at least 40%, at least 45%, at least 50%, at least 55%, at least 60%, at least 65%, at least 65%, at least 70%, at least 75%, at least 80%, at least 85%, at least 90%, at least 95%, at least 99%) lower than the renal toxicity of the reference. The renal toxicity of a peptide can be measured in vitro using a renal proximal tubule epithelial cell (RPTEC) renal toxicity assay.
(§2) Cell culture: RPTEC were maintained in MEM media supplemented with growth factors. HEPG2 cell line was maintained in Eagle's Minimum Essential Medium (EMEM) supplemented with fetal bovine serum to a final concentration of 10%.
90 minute cytotoxicity assay: Cells were plated in a 96-well format, and after overnight incubation, media was replaced with fresh media. Serial dilutions of StAMPs from a 5 mg/mL water stock, or vehicle, were added to the cells in a final volume of 100 μl. After incubating at 37° C. for 90 min, 50 μl of cell culture media was transferred to a clear 96-well plate, incubated with 50 μl of lactate dehydrogenase (LDH) assay reagent for 10 min, and absorbance measured at 490 nm on a microplate reader.
(§3) Renal toxicity was measured after 90 minutes of incubation, while liver toxicity was measured after 48 hours of incubation with StAMPs. N/A=not tested.

[2] = 48 hours cytotoxicity assay (CellTiter-Glo), liver toxicity; format: cell-based, human
Source text: as §1, with “hepatic” for “renal”, “human liver cells (e.g., HepG2)” for “renal proximal tubule epithelial cell (RPTEC) renal”
as §2
48 hours cytotoxicity assay: Cells were plated in a 96-well format, and after 4 hour incubation to allow attachment, serial dilutions of StAMPs from a 5 mg/mL water stock, or vehicle, were then added to the cells in a final volume of 100 μl. After incubating at 37° C. for 48 hours, 100 μl of CellTiter-Glo® reagent was added to the cells, and the plates were incubated 10 minutes at room temperature. Luminescence was then measured on a microplate reader.
as §3

SMILES	IC50 [1] [µg/mL]	IC50 [2] [µg/mL]
CC[C@H](C)[C@H](NC(=O)CN)C(=O)N[C@@H](Cc1ccccc1)C(=O)N[C@@H](CO)C(=O)N[C@@H](CCCCN)C(=O)N[C@@H](CC(C)C)C(=O)N[C@@H](C)C(=O)NCC(=O)N[C@@H](CCCCN)C(=O)N[C@@H](CCCCN)C(=O)N[C@H](C(=O)N[C@@H](CCCCN)C(=O)N[C@H]1CSCc2cccc(c2)CSC[C@@H](C(=O)NCC(=O)N[C@@H](CC(C)C)C(=O)N[C@@H](CCCCN)C(=O)NCC(N)=O)NC(=O)[C@H]([C@@H](C)CC)NC(=O)[C@H](CC(C)C)NC(=O)[C@H](CC(C)C)NC1=O)[C@@H](C)CC [compound 23] (H-GIFSKLAGKKIKCLLICGLKG-NH2; linker 13-17 via mXylylene; N-terminus assumed)	52 (≈ 22.7 µM)	97 (≈ 42.3 µM)
CC[C@H](C)[C@H](NC(=O)CN)C(=O)N[C@@H](Cc1ccccc1)C(=O)N[C@@H](CO)C(=O)N[C@@H](CCCCN)C(=O)N[C@@H](CC(C)C)C(=O)N[C@@H](C)C(=O)NCC(=O)N[C@@H](CCCCN)C(=O)N[C@@H](CCCCN)C(=O)N[C@H](C(=O)N[C@@H](CCCCN)C(=O)N[C@H]1CSCc2ccc(cc2)CSC[C@@H](C(=O)NCC(=O)N[C@@H](CC(C)C)C(=O)N[C@@H](CCCCN)C(=O)NCC(N)=O)NC(=O)[C@H]([C@@H](C)CC)NC(=O)[C@H](CC(C)C)NC(=O)[C@H](CC(C)C)NC1=O)[C@@H](C)CC [compound 24] (H-GIFSKLAGKKIKCLLICGLKG-NH2; linker 13-17 via pXylylene; N-terminus assumed)	54 (≈ 23.6 µM)	103 (≈ 44.9 µM)
CC[C@H](C)[C@H](NC(=O)CN)C(=O)N[C@@H](Cc1ccccc1)C(=O)N[C@@H](CO)C(=O)N[C@@H](CCCCN)C(=O)N[C@@H](CC(C)C)C(=O)N[C@@H](C)C(=O)NCC(=O)N[C@@H](CCCCN)C(=O)N[C@@H](CCCCN)C(=O)N[C@H](C(=O)N[C@@H](CCCCN)C(=O)N[C@H]1CSCC=CCSC[C@@H](C(=O)NCC(=O)N[C@@H](CC(C)C)C(=O)N[C@@H](CCCCN)C(=O)NCC(N)=O)NC(=O)[C@H]([C@@H](C)CC)NC(=O)[C@H](CC(C)C)NC(=O)[C@H](CC(C)C)NC1=O)[C@@H](C)CC [compound 25] (H-GIFSKLAGKKIKCLLICGLKG-NH2; linker 13-17 via X1; N-terminus assumed)	200 (≈ 89.2 µM)	141 (≈ 62.9 µM)
CC[C@H](C)[C@H](NC(=O)CN)C(=O)N[C@@H](Cc1ccccc1)C(=O)N[C@@H](CO)C(=O)N[C@@H](CCCCN)C(=O)N[C@@H](CC(C)C)C(=O)N[C@@H](C)C(=O)NCC(=O)N[C@@H](CCCCN)C(=O)N[C@@H](CCCCN)C(=O)N[C@H](C(=O)N[C@@H](CCCCN)C(=O)N[C@@H](CC(N)=O)C(=O)N[C@H]1CSCc2cccc(c2)CSC[C@@H](C(=O)N[C@@H](CC(C)C)C(=O)N[C@@H](CCCCN)C(=O)NCC(N)=O)NC(=O)[C@H](CO)NC(=O)[C@H]([C@@H](C)CC)NC(=O)[C@H](CC(C)C)NC1=O)[C@@H](C)CC [compound 26] (H-GIFSKLAGKKIKNCLISCLKG-NH2; linker 14-18 via mXylylene; N-terminus assumed)	64 (≈ 27.6 µM)	44 (≈ 18.9 µM)
CC[C@H](C)[C@H](NC(=O)CN)C(=O)N[C@@H](Cc1ccccc1)C(=O)N[C@@H](CO)C(=O)N[C@@H](CCCCN)C(=O)N[C@@H](CC(C)C)C(=O)N[C@@H](C)C(=O)NCC(=O)N[C@@H](CCCCN)C(=O)N[C@@H](CCCCN)C(=O)N[C@H](C(=O)N[C@@H](CCCCN)C(=O)N[C@@H](CC(N)=O)C(=O)N[C@H]1CSCc2ccc(cc2)CSC[C@@H](C(=O)N[C@@H](CC(C)C)C(=O)N[C@@H](CCCCN)C(=O)NCC(N)=O)NC(=O)[C@H](CO)NC(=O)[C@H]([C@@H](C)CC)NC(=O)[C@H](CC(C)C)NC1=O)[C@@H](C)CC [compound 27] (H-GIFSKLAGKKIKNCLISCLKG-NH2; linker 14-18 via pXylylene; N-terminus assumed)	> 200	> 200
CC[C@H](C)[C@H](NC(=O)CN)C(=O)N[C@@H](Cc1ccccc1)C(=O)N[C@@H](CO)C(=O)N[C@@H](CCCCN)C(=O)N[C@@H](CC(C)C)C(=O)N[C@@H](C)C(=O)NCC(=O)N[C@@H](CCCCN)C(=O)N[C@@H](CCCCN)C(=O)N[C@H](C(=O)N[C@@H](CCCCN)C(=O)N[C@@H](CC(N)=O)C(=O)N[C@H]1CSCC=CCSC[C@@H](C(=O)N[C@@H](CC(C)C)C(=O)N[C@@H](CCCCN)C(=O)NCC(N)=O)NC(=O)[C@H](CO)NC(=O)[C@H]([C@@H](C)CC)NC(=O)[C@H](CC(C)C)NC1=O)[C@@H](C)CC [compound 28] (H-GIFSKLAGKKIKNCLISCLKG-NH2; linker 14-18 via X1; N-terminus assumed)	> 200	> 200
CC[C@H](C)[C@H](NC(=O)CN)C(=O)N[C@@H](Cc1ccccc1)C(=O)N[C@@H](CO)C(=O)N[C@@H](CCCCN)C(=O)N[C@@H](CC(C)C)C(=O)N[C@@H](C)C(=O)NCC(=O)N[C@@H](CCCCN)C(=O)N[C@@H](CCCCN)C(=O)N[C@H](C(=O)N[C@@H](CCCCN)C(=O)N[C@@H](CC(N)=O)C(=O)N[C@@H](CC(C)C)C(=O)N[C@@H](CC(C)C)C(=O)N[C@H]1CSCC=CCSC[C@@H](C(=O)NCC(N)=O)NC(=O)[C@H](CC(C)C)NC(=O)CNC(=O)[C@H](CO)NC1=O)[C@@H](C)CC [compound 34] (H-GIFSKLAGKKIKNLLCSGLCG-NH2; linker 16-20 via X1; N-terminus assumed)	~200 (≈ 90.8 µM)	119 (≈ 54 µM)
CC[C@H](C)[C@H](NC(=O)CN)C(=O)N[C@@H](Cc1ccccc1)C(=O)N[C@@H](CO)C(=O)N[C@@H](CCCCN)C(=O)N[C@@H](CC(C)C)C(=O)N[C@@H](C)C(=O)NCC(=O)N[C@@H](CCCCN)C(=O)N[C@@H](CCCCN)C(=O)N[C@H](C(=O)N[C@@H](CCCCN)C(=O)N[C@@H](CC(N)=O)C(=O)N[C@@H](CC(C)C)C(=O)N[C@@H](CC(C)C)C(=O)N[C@H](C(=O)N[C@H]1CSCC=CCSC[C@@H](C(N)=O)NC(=O)[C@H](CCCCN)NC(=O)[C@H](CC(C)C)NC(=O)CNC1=O)[C@@H](C)CC)[C@@H](C)CC [compound 35] (H-GIFSKLAGKKIKNLLICGLKC-NH2; linker 17-21 via X1; N-terminus assumed)	~200 (≈ 87 µM)	~200 (≈ 87 µM)
CC[C@H](C)[C@H](NC(=O)[C@H](CC(C)C)NC(=O)[C@H](CC(C)C)NC(=O)[C@H](CC(N)=O)NC(=O)[C@H](CCCCN)NC(=O)[C@@H](NC(=O)[C@H](CCCCN)NC(=O)[C@H](CCCCN)NC(=O)CNC(=O)[C@H](C)NC(=O)[C@H](CC(C)C)NC(=O)[C@@H]1CSCc2cccc(c2)CSC[C@H](N)C(=O)N[C@@H]([C@@H](C)CC)C(=O)N[C@@H](Cc2ccccc2)C(=O)N[C@@H](CO)C(=O)N1)[C@@H](C)CC)C(=O)N[C@@H](CO)C(=O)NCC(=O)N[C@@H](CC(C)C)C(=O)N[C@@H](CCCCN)C(=O)NCC(N)=O [compound 36] (H-CIFSCLAGKKIKNLLISGLKG-NH2; linker 1-5 via mXylylene; N-terminus assumed)	~200 (≈ 86.7 µM)	75 (≈ 32.5 µM)
CC[C@H](C)[C@H](NC(=O)[C@H](CC(C)C)NC(=O)[C@H](CC(C)C)NC(=O)[C@H](CC(N)=O)NC(=O)[C@H](CCCCN)NC(=O)[C@@H](NC(=O)[C@H](CCCCN)NC(=O)[C@H](CCCCN)NC(=O)CNC(=O)[C@H](C)NC(=O)[C@H](CC(C)C)NC(=O)[C@@H]1CSCc2ccc(cc2)CSC[C@H](N)C(=O)N[C@@H]([C@@H](C)CC)C(=O)N[C@@H](Cc2ccccc2)C(=O)N[C@@H](CO)C(=O)N1)[C@@H](C)CC)C(=O)N[C@@H](CO)C(=O)NCC(=O)N[C@@H](CC(C)C)C(=O)N[C@@H](CCCCN)C(=O)NCC(N)=O [compound 37] (H-CIFSCLAGKKIKNLLISGLKG-NH2; linker 1-5 via pXylylene; N-terminus assumed)	140 (≈ 60.7 µM)	33 (≈ 14.3 µM)
